Measured values: ChEMBL document CHEMBL2073948, “Interactions of the human multidrug resistance proteins MRP1 and MRP2 with organic anions” (Mol Pharmacol, 2000)
Blank lines part the entries; values can stand above or below the compound they belong to.

How the values were obtained:
Format in all cases: functional, cell membranes, Membrane vesicle
[1] = target: T1, ATP-binding cassette sub-family C member 2 (Homo sapiens, UniProt Q92887); test: TP_TRANSPORTER: inhibition of NEM-GS uptake (NEM-GS: 4 uM, Probenecid: <1000 uM) in membrane vesicles from MRP2-expressing Sf9 cells
[2] = target: T2, Multidrug resistance-associated protein 1 (Homo sapiens, UniProt P33527); test: TP_TRANSPORTER: inhibition of NEM-GS uptake (NEM-GS: 4 uM, Probenecid: <1000 uM) in membrane vesicles from MRP1-expressing Sf9 cells
[3] = target: T1, ATP-binding cassette sub-family C member 2; test: TP_TRANSPORTER: inhibition of NEM-GS uptake (NEM-GS: 4 uM, Furosemide: 5000 uM) in membrane vesicles from MRP2-expressing Sf9 cells; settings: sf9, 5000 µM
[4] = target: T1, ATP-binding cassette sub-family C member 2; test: TP_TRANSPORTER: uptake in membrane vesicles from MRP2-expressing Sf9 cells
[5] = target: T2, Multidrug resistance-associated protein 1; test: TP_TRANSPORTER: uptake in membrane vesicles from MRP1-expressing Sf9 cells

T1 sequence (Q92887 whole entry): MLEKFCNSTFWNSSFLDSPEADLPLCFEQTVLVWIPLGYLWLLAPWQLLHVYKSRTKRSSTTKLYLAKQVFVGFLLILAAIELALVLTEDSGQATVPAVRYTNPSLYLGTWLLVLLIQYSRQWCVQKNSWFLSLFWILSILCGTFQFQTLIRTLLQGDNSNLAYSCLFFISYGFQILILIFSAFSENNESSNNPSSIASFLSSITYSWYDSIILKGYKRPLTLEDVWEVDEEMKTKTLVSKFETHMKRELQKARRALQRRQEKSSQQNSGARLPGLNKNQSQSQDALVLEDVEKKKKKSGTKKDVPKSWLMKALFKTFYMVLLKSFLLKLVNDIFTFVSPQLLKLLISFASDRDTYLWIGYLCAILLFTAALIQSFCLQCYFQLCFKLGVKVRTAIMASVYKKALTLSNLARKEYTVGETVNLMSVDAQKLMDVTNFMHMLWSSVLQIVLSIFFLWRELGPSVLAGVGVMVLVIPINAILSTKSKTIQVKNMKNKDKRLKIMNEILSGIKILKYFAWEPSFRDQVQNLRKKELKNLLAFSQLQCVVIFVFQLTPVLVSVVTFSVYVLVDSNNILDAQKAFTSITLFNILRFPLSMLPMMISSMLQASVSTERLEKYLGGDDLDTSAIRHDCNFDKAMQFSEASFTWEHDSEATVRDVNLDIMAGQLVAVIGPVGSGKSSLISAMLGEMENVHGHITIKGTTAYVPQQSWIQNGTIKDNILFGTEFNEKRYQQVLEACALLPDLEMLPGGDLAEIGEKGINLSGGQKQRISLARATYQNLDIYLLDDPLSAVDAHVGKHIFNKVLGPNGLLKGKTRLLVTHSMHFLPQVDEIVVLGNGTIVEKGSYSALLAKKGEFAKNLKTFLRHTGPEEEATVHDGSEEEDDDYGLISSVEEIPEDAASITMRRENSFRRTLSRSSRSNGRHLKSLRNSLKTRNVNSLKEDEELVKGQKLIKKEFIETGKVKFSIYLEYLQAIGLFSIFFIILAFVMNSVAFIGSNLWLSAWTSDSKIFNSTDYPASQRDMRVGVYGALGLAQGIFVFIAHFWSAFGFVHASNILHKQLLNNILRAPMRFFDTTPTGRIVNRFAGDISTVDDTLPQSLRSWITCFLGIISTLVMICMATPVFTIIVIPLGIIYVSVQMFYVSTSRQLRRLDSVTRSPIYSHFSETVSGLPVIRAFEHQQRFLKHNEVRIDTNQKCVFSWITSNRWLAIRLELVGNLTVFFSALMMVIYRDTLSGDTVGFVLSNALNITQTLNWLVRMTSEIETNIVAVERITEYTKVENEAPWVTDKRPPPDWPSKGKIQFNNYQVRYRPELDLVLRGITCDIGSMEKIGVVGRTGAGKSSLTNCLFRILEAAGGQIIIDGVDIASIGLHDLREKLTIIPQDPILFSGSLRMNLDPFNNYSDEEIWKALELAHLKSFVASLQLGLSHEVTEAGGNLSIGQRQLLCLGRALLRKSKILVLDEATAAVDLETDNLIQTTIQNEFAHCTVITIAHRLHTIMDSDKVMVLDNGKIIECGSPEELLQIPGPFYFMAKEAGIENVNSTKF
T2 sequence (P33527 whole entry): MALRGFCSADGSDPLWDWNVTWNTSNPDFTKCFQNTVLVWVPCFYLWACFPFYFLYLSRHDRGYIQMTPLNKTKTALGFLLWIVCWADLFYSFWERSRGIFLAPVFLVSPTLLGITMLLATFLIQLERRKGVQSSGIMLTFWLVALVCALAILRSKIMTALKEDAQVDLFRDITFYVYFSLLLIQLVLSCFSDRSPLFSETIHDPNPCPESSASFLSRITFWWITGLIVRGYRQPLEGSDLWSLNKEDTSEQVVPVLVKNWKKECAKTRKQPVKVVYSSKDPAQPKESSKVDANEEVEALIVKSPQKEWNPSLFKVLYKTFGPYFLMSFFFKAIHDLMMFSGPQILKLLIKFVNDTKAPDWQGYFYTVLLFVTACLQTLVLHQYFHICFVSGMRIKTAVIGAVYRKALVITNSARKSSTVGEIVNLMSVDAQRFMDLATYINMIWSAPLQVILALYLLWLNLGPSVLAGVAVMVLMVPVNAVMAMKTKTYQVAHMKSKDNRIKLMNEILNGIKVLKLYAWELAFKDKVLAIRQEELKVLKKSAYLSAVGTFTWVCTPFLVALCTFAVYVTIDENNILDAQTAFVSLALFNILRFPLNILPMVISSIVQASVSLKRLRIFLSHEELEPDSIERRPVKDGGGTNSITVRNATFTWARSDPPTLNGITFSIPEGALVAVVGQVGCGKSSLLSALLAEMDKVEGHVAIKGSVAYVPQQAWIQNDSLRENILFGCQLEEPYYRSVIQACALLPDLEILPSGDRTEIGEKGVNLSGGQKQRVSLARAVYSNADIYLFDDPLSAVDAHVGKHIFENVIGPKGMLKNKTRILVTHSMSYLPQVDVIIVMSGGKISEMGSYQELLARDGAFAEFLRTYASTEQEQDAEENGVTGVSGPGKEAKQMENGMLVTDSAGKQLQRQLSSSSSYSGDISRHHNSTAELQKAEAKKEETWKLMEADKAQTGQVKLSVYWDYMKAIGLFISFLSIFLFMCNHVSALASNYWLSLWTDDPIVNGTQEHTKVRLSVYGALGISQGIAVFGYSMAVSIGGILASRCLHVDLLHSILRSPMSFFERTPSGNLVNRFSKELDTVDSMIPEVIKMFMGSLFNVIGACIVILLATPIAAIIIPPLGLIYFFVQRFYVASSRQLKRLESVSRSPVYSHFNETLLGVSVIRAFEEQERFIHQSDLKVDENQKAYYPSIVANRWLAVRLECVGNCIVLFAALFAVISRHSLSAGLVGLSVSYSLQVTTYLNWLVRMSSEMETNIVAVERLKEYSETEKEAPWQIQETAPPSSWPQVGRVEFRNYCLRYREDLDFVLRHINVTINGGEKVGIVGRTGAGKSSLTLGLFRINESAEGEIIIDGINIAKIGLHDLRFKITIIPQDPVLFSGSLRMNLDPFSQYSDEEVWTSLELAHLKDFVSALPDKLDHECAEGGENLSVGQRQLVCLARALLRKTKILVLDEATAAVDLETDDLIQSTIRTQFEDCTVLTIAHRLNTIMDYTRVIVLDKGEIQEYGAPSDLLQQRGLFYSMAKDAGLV

Activity [1]: inhibitor [+]
Activity [2]: inhibitor [+]
Compound: CCCN(CCC)S(=O)(=O)c1ccc(C(=O)O)cc1 [PROBENECID]

Activity [3]: inhibitor [+]
Compound: NS(=O)(=O)c1cc(C(=O)O)c(NCc2ccco2)cc1Cl [FUROSEMIDE]

K1/2 [4]: 2500 µM
K1/2 [5]: 200 µM
Compound: NC(CCC(=O)NC(CNCC(=O)O)CSCCN1C(=O)C=CC1=O)C(=O)O (stereo not given)
